Columns and labels:
Assay in all cases: Greenhouse pot test, postemergent spray, visual control rating converted to percent control
Assay type in all cases: in vivo
crabgrass = test system: crabgrass
Procedure: (§1) Pots of crabgrass, dandelion, white clover, and plantain grown in greenhouse soiless growth media were sprayed with a greenhouse pot sprayer at 43.46 gallons of spray solution/acre and allowed to stand in the greenhouse. Visual observation of the effects made by the herbicidal compositions on the plants in the test pots was recorded for control of crabgrass, dandelion, clover and plantain at 24 hours after treatment (HAT), 48 hours after treatment (HAT), 72 hours after treatment (HAT), 7 days after treatment (DAT), 14 days after treatment (DAT) and 21 days after treatment (DAT). A control rating scale of 1 to 9 was used to record the visual observation of the effect of the herbicidal composition on the plants over the time period of the tests. 1=no control, and 9=death of plant, with intervening numbers representing successive degrees of observed effectiveness of the herbicidal composition over time. The 1-9 control rating scale was converted to percent control in the test data charts that follow.
(§2) The test protocol of S. R. Colby as set out in his article entitled “Calculating Synergistic and Antagonistic Responses of Herbicide Compositions,” received for publication Apr. 11, 1966, Contribution No. 3796 and Scientific Article No. 1271 of the Maryland Agricultural Experiment Station, Department pf Agronomy, University of Maryland was followed to evaluate the synergistic properties of the combination of quinclorac plus a herbicidal protox inhibitor, and a combination of quinclorac, plus a herbicidal protox inhibitor plus a herbicidal auxinic agent as compared with the individual herbicides, using Colby's formulas E=X+Y−XY/100 for a two herbicide combination, where E=the expected percent of inhibition of growth by herbicides, X=the percent inhibition of growth by herbicide A at p lb/A, and Y=the percent inhibition of growth by herbicide B at q lb/A, for a given combination of two herbicides. Colby's formula E=X+Y+Z−(XY+XZ+YZ)/100+XYZ/10,000, was used for the three-way herbicide combination evaluation, where E, X and Y are the same as in the two herbicide formula and Z=the percent inhibition of growth by the third herbicide.

dandelion = test system: dandelion
Procedure: as §1, §2

plantain = test system: plantain
Procedure: as §1, §2

white clover = test system: white clover
Procedure: as §1, §2

[1] = Test 4, 24 HAT, scale 1=no control, 9=death of plant
[2] = Test 4, 72 HAT, scale 1=no control, 9=death of plant
[3] = Test 3, 7 DAT, scale 1=no control, 9=death of plant
[4] = Test 3, 14 DAT, scale 1=no control, 9=death of plant
[5] = Test 3, 21 DAT, scale 1=no control, 9=death of plant
[6] = Test 3, 24 HAT, scale 1=no control, 9=death of plant
[7] = Test 3, 72 HAT, scale 1=no control, 9=death of plant

## Cc1cc(Cl)ccc1OCC(=O)OCCCCCC(C)C [MCPA IOE]
crabgrass; Test 4, 7 DAT, 1.10 lbs/A
  % Control Crabgrass: 11.1%
  Control (1-9) Crabgrass: 1
crabgrass; Test 4, 14 DAT, 1.10 lbs/A
  % Control Crabgrass: 11.1%
  Control (1-9) Crabgrass: 1
dandelion; Test 4, 7 DAT, 1.10 lbs/A
  % Control Dandelion: 44.4%
  Control (1-9) Dandelion: 4
dandelion; Test 4, 14 DAT, 1.10 lbs/A
  % Control Dandelion: 55.6%
  Control (1-9) Dandelion: 5
plantain; Test 4, 7 DAT, 1.10 lbs/A
  % Control Plantain: 66.7%
  Control (1-9) Plantain: 6
plantain; Test 4, 14 DAT, 1.10 lbs/A
  % Control Plantain: 66.7%
  Control (1-9) Plantain: 6
White clover; Test 4, 7 DAT, 1.10 lbs/A
  % Control Clover: 66.7%
  Control (1-9) Clover: 6
White clover; Test 4, 14 DAT, 1.10 lbs/A
  % Control Clover: 100.0%
  Control (1-9) Clover: 9

## Cc1nn(-c2cc(CC(Cl)C(=O)O)c(Cl)cc2F)c(=O)n1C(F)F (stereo not shown) [Carfentrazone @ 0.01 lbs/A]
crabgrass; Test 4, 24 HAT
  % Control Crabgrass: 11.1%
crabgrass; [1]
  Control (1-9) Crabgrass: 1
crabgrass; Test 4, 72 HAT
  % Control Crabgrass: 22.2%
crabgrass; [2]
  Control (1-9) Crabgrass: 2
dandelion; Test 4, 24 HAT
  % Control Dandelion: 22.2%
dandelion; [1]
  Control (1-9) Dandelion: 2
dandelion; Test 4, 72 HAT
  % Control Dandelion: 33.3%
dandelion; [2]
  Control (1-9) Dandelion: 3
plantain; Test 4, 24 HAT
  % Control Plantain: 33.3%
plantain; [1]
  Control (1-9) Plantain: 3
plantain; Test 4, 72 HAT
  % Control Plantain: 88.9%
plantain; [2]
  Control (1-9) Plantain: 8
White clover; Test 4, 24 HAT
  % Control Clover: 22.2%
White clover; [1]
  Control (1-9) Clover: 2
White clover; Test 4, 72 HAT
  % Control Clover: 44.4%
White clover; [2]
  Control (1-9) Clover: 4

## Cc1nn(-c2cc(NS(C)(=O)=O)c(Cl)cc2Cl)c(=O)n1C(F)F [Sulfentrazone @ 0.02 lbs/A]
crabgrass; Test 3, 7 DAT
  % Control Crabgrass: 44.4%
crabgrass; [3]
  Control (1-9) Crabgrass: 4
crabgrass; Test 3, 14 DAT
  % Control Crabgrass: 44.4%
crabgrass; [4]
  Control (1-9) Crabgrass: 4
crabgrass; Test 3, 21 DAT
  % Control Crabgrass: 33.3%
crabgrass; [5]
  Control (1-9) Crabgrass: 3
crabgrass; Test 3, 24 HAT
  % Control Crabgrass: 11.1%
crabgrass; [6]
  Control (1-9) Crabgrass: 1
crabgrass; Test 3, 72 HAT
  % Control Crabgrass: 22.2%
crabgrass; [7]
  Control (1-9) Crabgrass: 2
dandelion; Test 3, 7 DAT
  % Control Dandelion: 44.4%
dandelion; [3]
  Control (1-9) Dandelion: 4
dandelion; Test 3, 14 DAT
  % Control Dandelion: 77.8%
dandelion; [4]
  Control (1-9) Dandelion: 7
dandelion; Test 3, 21 DAT
  % Control Dandelion: 66.7%
dandelion; [5]
  Control (1-9) Dandelion: 6
dandelion; Test 3, 24 HAT
  % Control Dandelion: 33.3%
dandelion; [6]
  Control (1-9) Dandelion: 3
dandelion; Test 3, 72 HAT
  % Control Dandelion: 33.3%
dandelion; [7]
  Control (1-9) Dandelion: 3
plantain; Test 3, 7 DAT
  % Control Plantain: 100.0%
plantain; [3]
  Control (1-9) Plantain: 9
plantain; Test 3, 14 DAT
  % Control Plantain: 100.0%
plantain; [4]
  Control (1-9) Plantain: 9
plantain; Test 3, 21 DAT
  % Control Plantain: 100.0%
plantain; [5]
  Control (1-9) Plantain: 9
plantain; Test 3, 24 HAT
  % Control Plantain: 44.4%
plantain; [6]
  Control (1-9) Plantain: 4
plantain; Test 3, 72 HAT
  % Control Plantain: 88.9%
plantain; [7]
  Control (1-9) Plantain: 8
White clover; Test 3, 7 DAT
  % Control Clover: 33.3%
White clover; [3]
  Control (1-9) Clover: 3
White clover; Test 3, 14 DAT
  % Control Clover: 44.4%
White clover; [4]
  Control (1-9) Clover: 4
White clover; Test 3, 21 DAT
  % Control Clover: 44.4%
White clover; [5]
  Control (1-9) Clover: 4
White clover; Test 3, 24 HAT
  % Control Clover: 33.3%
White clover; [6]
  Control (1-9) Clover: 3
White clover; Test 3, 72 HAT
  % Control Clover: 22.2%
White clover; [7]
  Control (1-9) Clover: 2

## Cc1nn(-c2cc(CC(Cl)C(=O)O)c(Cl)cc2F)c(=O)n1C(F)F (stereo not shown) [Carfentrazone @ 0.02 lbs/A]
crabgrass; Test 4, 24 HAT
  % Control Crabgrass: 11.1%
crabgrass; [1]
  Control (1-9) Crabgrass: 1
crabgrass; Test 4, 72 HAT
  % Control Crabgrass: 44.4%
crabgrass; [2]
  Control (1-9) Crabgrass: 4
dandelion; Test 4, 24 HAT
  % Control Dandelion: 33.3%
dandelion; [1]
  Control (1-9) Dandelion: 3
dandelion; Test 4, 72 HAT
  % Control Dandelion: 55.6%
dandelion; [2]
  Control (1-9) Dandelion: 5
plantain; Test 4, 24 HAT
  % Control Plantain: 33.3%
plantain; [1]
  Control (1-9) Plantain: 3
plantain; Test 4, 72 HAT
  % Control Plantain: 66.7%
plantain; [2]
  Control (1-9) Plantain: 6
White clover; Test 4, 24 HAT
  % Control Clover: 44.4%
White clover; [1]
  Control (1-9) Clover: 4
White clover; Test 4, 72 HAT
  % Control Clover: 44.4%
White clover; [2]
  Control (1-9) Clover: 4

## Cc1nn(-c2cc(NS(C)(=O)=O)c(Cl)cc2Cl)c(=O)n1C(F)F [Sulfentrazone, reference compound]
crabgrass; Test 2, 7 DAT, 0.02 lbs/A
  % Control Crabgrass: 22.2%
  Control (1-9) Crabgrass: 2
crabgrass; Test 2, 7 DAT, 0.03 lbs/A
  % Control Crabgrass: 22.2%
  Control (1-9) Crabgrass: 2
crabgrass; Test 2, 14 DAT, 0.02 lbs/A
  % Control Crabgrass: 22.2%
  Control (1-9) Crabgrass: 2
crabgrass; Test 2, 14 DAT, 0.03 lbs/A
  % Control Crabgrass: 22.2%
  Control (1-9) Crabgrass: 2
crabgrass; Test 2, 24 HAT, 0.02 lbs/A
  % Control Crabgrass: 33.3%
  Control (1-9) Crabgrass: 3
crabgrass; Test 2, 24 HAT, 0.03 lbs/A
  % Control Crabgrass: 44.4%
  Control (1-9) Crabgrass: 4
crabgrass; Test 2, 72 HAT, 0.02 lbs/A
  % Control Crabgrass: 33.3%
  Control (1-9) Crabgrass: 3
crabgrass; Test 2, 72 HAT, 0.03 lbs/A
  % Control Crabgrass: 33.3%
  Control (1-9) Crabgrass: 3
dandelion; Test 2, 7 DAT, 0.02 lbs/A
  % Control Dandelion: 88.9%
  Control (1-9) Dandelion: 8
dandelion; Test 2, 7 DAT, 0.03 lbs/A
  % Control Dandelion: 88.9%
  Control (1-9) Dandelion: 8
dandelion; Test 2, 14 DAT, 0.02 lbs/A
  % Control Dandelion: 88.9%
  Control (1-9) Dandelion: 8
dandelion; Test 2, 14 DAT, 0.03 lbs/A
  % Control Dandelion: 88.9%
  Control (1-9) Dandelion: 8
dandelion; Test 2, 24 HAT, 0.02 lbs/A
  % Control Dandelion: 22.2%
  Control (1-9) Dandelion: 2
dandelion; Test 2, 24 HAT, 0.03 lbs/A
  % Control Dandelion: 22.2%
  Control (1-9) Dandelion: 2
dandelion; Test 2, 72 HAT, 0.02 lbs/A
  % Control Dandelion: 44.4%
  Control (1-9) Dandelion: 4
dandelion; Test 2, 72 HAT, 0.03 lbs/A
  % Control Dandelion: 44.4%
  Control (1-9) Dandelion: 4
White clover; Test 2, 7 DAT, 0.02 lbs/A
  % Control Clover: 77.8%
  Control (1-9) Clover: 7
White clover; Test 2, 7 DAT, 0.03 lbs/A
  % Control Clover: 55.6%
  Control (1-9) Clover: 5
White clover; Test 2, 14 DAT, 0.02 lbs/A
  % Control Clover: 77.8%
  Control (1-9) Clover: 7
White clover; Test 2, 14 DAT, 0.03 lbs/A
  % Control Clover: 66.7%
  Control (1-9) Clover: 6
White clover; Test 2, 24 HAT, 0.02 lbs/A
  % Control Clover: 22.2%
  Control (1-9) Clover: 2
White clover; Test 2, 24 HAT, 0.03 lbs/A
  % Control Clover: 22.2%
  Control (1-9) Clover: 2
White clover; Test 2, 72 HAT, 0.02 lbs/A
  % Control Clover: 33.3%
  Control (1-9) Clover: 3
White clover; Test 2, 72 HAT, 0.03 lbs/A
  % Control Clover: 22.2%
  Control (1-9) Clover: 2

## CC(C)CCCCCOC(=O)COc1ccc(Cl)cc1Cl [2,4-D IOE]
crabgrass; Test 1, 7 DAT, 0.70 lbs/A
  % Control Crabgrass: 44.4%
  Control (1-9) Crabgrass: 4
crabgrass; Test 1, 14 DAT, 0.70 lbs/A
  % Control Crabgrass: 33.3%
  Control (1-9) Crabgrass: 3
crabgrass; Test 1, 24 HAT, 0.70 lbs/A
  % Control Crabgrass: 22.2%
  Control (1-9) Crabgrass: 2
crabgrass; Test 1, 48 HAT, 0.70 lbs/A
  % Control Crabgrass: 44.4%
  Control (1-9) Crabgrass: 4
crabgrass; Test 2, 7 DAT, 0.70 lbs/A
  % Control Crabgrass: 22.2%
  Control (1-9) Crabgrass: 2
crabgrass; Test 2, 14 DAT, 0.70 lbs/A
  % Control Crabgrass: 22.2%
  Control (1-9) Crabgrass: 2
crabgrass; Test 2, 24 HAT, 0.70 lbs/A
  % Control Crabgrass: 33.3%
  Control (1-9) Crabgrass: 3
crabgrass; Test 2, 72 HAT, 0.70 lbs/A
  % Control Crabgrass: 66.7%
  Control (1-9) Crabgrass: 6
dandelion; Test 1, 7 DAT, 0.70 lbs/A
  % Control Dandelion: 66.7%
  Control (1-9) Dandelion: 6
dandelion; Test 1, 14 DAT, 0.70 lbs/A
  % Control Dandelion: 100.0%
  Control (1-9) Dandelion: 9
dandelion; Test 1, 24 HAT, 0.70 lbs/A
  % Control Dandelion: 33.3%
  Control (1-9) Dandelion: 3
dandelion; Test 1, 48 HAT, 0.70 lbs/A
  % Control Dandelion: 44.4%
  Control (1-9) Dandelion: 4
dandelion; Test 2, 7 DAT, 0.70 lbs/A
  % Control Dandelion: 88.9%
  Control (1-9) Dandelion: 8
dandelion; Test 2, 14 DAT, 0.70 lbs/A
  % Control Dandelion: 100.0%
  Control (1-9) Dandelion: 9
dandelion; Test 2, 24 HAT, 0.70 lbs/A
  % Control Dandelion: 33.3%
  Control (1-9) Dandelion: 3
dandelion; Test 2, 72 HAT, 0.70 lbs/A
  % Control Dandelion: 66.7%
  Control (1-9) Dandelion: 6
White clover; Test 1, 7 DAT, 0.70 lbs/A
  % Control Clover: 44.4%
  Control (1-9) Clover: 4
White clover; Test 1, 14 DAT, 0.70 lbs/A
  % Control Clover: 88.9%
  Control (1-9) Clover: 8
White clover; Test 1, 24 HAT, 0.70 lbs/A
  % Control Clover: 11.1%
  Control (1-9) Clover: 1
White clover; Test 1, 48 HAT, 0.70 lbs/A
  % Control Clover: 44.4%
  Control (1-9) Clover: 4
White clover; Test 2, 7 DAT, 0.70 lbs/A
  % Control Clover: 66.7%
  Control (1-9) Clover: 6
White clover; Test 2, 14 DAT, 0.70 lbs/A
  % Control Clover: 100.0%
  Control (1-9) Clover: 9
White clover; Test 2, 24 HAT, 0.70 lbs/A
  % Control Clover: 33.3%
  Control (1-9) Clover: 3
White clover; Test 2, 72 HAT, 0.70 lbs/A
  % Control Clover: 66.7%
  Control (1-9) Clover: 6
